According to US9199976B2, “Haematopoietic-prostaglandin D2 synthase inhibitors” (The University of Queensland, priority 2010, dated 2015):

Experiments:
H-PGDS = H-PGDS (Homo sapiens (Human), UniProt O60760); assay: H-PGDS catalyzed conjugation of GSH and CDNB, enzyme inhibition assay; type: biochemical; settings: 50 μM compound; mean ± standard error of triplicate experiments; read-out: I[50], percent inhibition at 50 μM
Experimental: H-PGDS was expressed and purified as described previously (Jowsey, 2001). Briefly, H-PGDS was expressed in Escherichia coli strain BL21 DE3 transformed with the pET17b HPGDS expression construct, grown overnight at 37° C. in 250 ml of Luria-Bertani medium supplemented with 100 μg/ml ampicillin. After 24 h, without induction, bacteria were harvested by centrifugation at 5000 g for 20 min at 4° C.; cell pellets were kept at −70° C. until required. Cells were resuspended in 25 ml of ice-cold phosphate buffered saline (PBS), pH 7.4, containing 1 mM DTT, 0.5% Triton X-100 and EDTA-free protease inhibitor tablets (F. Hoffmann-La Roche, Dee Why, NSW, Australia); and incubated with rotation for 30 mins at 4° C. Cells were then lysed by sonication at 90-100 W over 3×1 min intervals, while incubated on ice; the lysate clarified by centrifugation at 18000 g for 10 min at 4° C.
The supernatant was then applied to a GSTPrep FF 16/10 column pre-equilibrated with PBS, pH 7.4, and 1 mM DTT, at 0.4 ml/minute using an AKTA explorer 100 (GE Healthcare, Rydalmere, NSW, Australia), then washed with 5 column volumes of the same buffer at 1 ml/min. Bound H-PGDS was eluted in 5 column volumes of 15 mM reduced glutathione in 50 mM Tris, pH 9.0, at 0.5 ml/min, and dialysed against 100 volumes of 5 mM TrisCl, pH 8.0. The protein was concentrated to 20 mg/ml, as determined by the method of Bradford (Bradford, 1976) using an Amicon Ultra-4 centrifugal filter device (Millipore, North Ryde, NSW, Australia) following manufacturers recommendations. Glycerol was added to a final concentration of 10% (v/v) prior to storage at −20° C.
The H-PGDS catalyzed conjugation of GSH and 1-chloro-2,4-dinitrobenzene (CDNB) was used as the biochemical assay for enzyme inhibition. Reactions were performed in 96 well plate format, and product formation was followed at A340 nm over a 10 min interval at 25° C. using a POWERWAVE XS microplate scanning spectrophotometer (Bio-Tek Instruments, Winooski, Vt., USA). Reactions were performed in 0.1 M Tris HCl, pH 8.0 containing 2 mM MgCl2, 1 mM CDNB, 2 mM GSH, 2.5 ng/μ1 purified H-PGDS and 10% (v/v) ethanol in a 200 μl reaction volume. IC50 values were calculated from rates of conjugation activity determined at eight concentration points bracketing the IC50, where compound solubility allowed, and were corrected for background activity at the same solvent concentrations. All compounds were made up in 100% DMSO and diluted with 0.1 M Tris HCl, pH 8.0 with 2 mM MgCl2. I50 and IC50 values were determined at a final DMSO composition of no greater than 4% v/v for all compounds. Non-linear regression analysis and IC50 calculations were performed using GraphPad Prism version 4.0c.

BMM = BMM cell viability by MTT assay; type: cell-based, mouse; settings: LPS 10 ng/ml, 24 h, 10-100 μM
Experimental: (§1) All bone marrow-derived macrophages (BMM) were obtained by culturing bone marrow cells from the femurs of 6 to 8 week old C57BL/6 male mice in RPMI 1640 medium (Invitrogen Life Technologies, Carlsbad, Calif., USA) supplemented with 10% Fetal calf serum (Invitrogen) 20 U/ml penicillin and 20 μg/ml streptomycin (Invitrogen), 2 mM L-glutamine (Glutamax-1, Invitrogen) in the presence of 10^4 U/ml (100 ng/mL) recombinant human CSF-1 (a gift from Chiron, Emeryville, Calif.) on bacteriological plastic plates for 7 days. The human megakaryocytic cell line MEG-01S was obtained from the American Type Culture Collection. MEG-01S were maintained in the same media as for BMM, supplemented with 1 mM Sodium Pyruvate (Invitrogen).
(§2) Known inhibitors 1 and 2, along with compound 3, were used to treat BMM at three doses (10, 30, 100 μM) in the presence of LPS for 24 h and cell viability was measured by MTT assay. BMM were seeded at 1×10^5 cells/well in 96 well plates and treated for 24 h with LPS (10 ng/ml) and compounds at 10, 30 and 100 μM. MEG-01S were PMA differentiated overnight before compounds were added for a further 24 h at 10, 30 and 100 μM. Cell viability was measured by MTT (Sigma-Aldrich) assay as described previously (Irvine, FASEB J, 2006).

[1] = test system: PGD2 production in mouse primary bone marrow-derived macrophages (BMM); assay: PGD2 production in LPS-activated BMM (EIA); type: cell-based
Experimental: as §1, with “(Invitrogen). […] The average PGD2 production from three independent experiments plus SEM is shown. * indicates p<0.05 versus LPS treatment alone. (Student's t test).” for “(Invitrogen).”

MEG-01S cells = assay: MEG-01S cell viability by MTT assay; type: cell-based, human; settings: 24 h, 0-100 μM
Experimental: as §1, §2
The effect of the compounds on MEG-01S cell viability was measured by MTT assay after 24 h treatment across the concentration range 0-100 μM of compounds (FIG. 3B). Data represent the average of 4 independent experiments plus SEM.

[2] = test system: LPS-inducible 6-keto PGF1α (prostacyclin derivative) production from BMM; assay: 6-keto PGF1α production in LPS-activated BMM (EIA); type: cell-based; settings: LPS-activated mouse BMM, 24 h
Experimental: as §1
(§3) BMM were seeded overnight at 2×10^5 cells/ml in 24 well plates before treatment with compound at either 10 μM or 0.1-100 μM for 24 h in the presence or absence of lipopolysaccharide (LPS) from Salmonella Minnesota (Sigma-Aldrich) at a final concentration of 10 ng/ml. […] Supernatants were collected and samples were analysed for PGD2 using Prostaglandin D2 Mox Express EIA kits, PGE2 using Prostaglandin E2 Express EIA kits, the prostacyclin derivative 6-keto PGF1α using the 6-keto Prostaglandin F1α EIA Kit and the Thromboxane A2 derivative TXB2 using the Thromboxane B2 Express EIA kit (Cayman Chemical) according to the manufacturer's instructions. […]

[3] = test system: LPS-inducible PGE2 production from BMM; assay: PGE2 production in LPS-activated BMM (EIA); type: cell-based; settings: LPS-activated mouse BMM, 24 h
Experimental: as §1, §3

[4] = test system: PGD2 production from MEG-01S human megakaryocytes; assay: A23187-inducible PGD2 production in PMA-differentiated MEG-01S (EIA); type: cell-based; settings: 0-100 μM
Experimental: as §1, §3

[5] = test system: LPS-inducible TXB2 (thromboxane A2 derivative) production from BMM; assay: TXB2 production in LPS-activated BMM (EIA); type: cell-based; settings: LPS-activated mouse BMM, 24 h
Experimental: as §1, §3

[6] = Rat pharmacokinetics, plasma concentration after oral dosing; type: in vivo, Sprague Dawley rat; settings: single oral 40 mg/kg; for Concentration (individual rat): rat plasma
Experimental: Male adult Sprague Dawley rates (˜165 g) received a single oral bolus dose of 40 mg/kg of compound 3 in a 0.5% methylcellulose/0.1% Tween80 by oral gavage. Rats were sacrificed when collecting blood and spleen samples just prior to dosing and at 0.5 hours, 2 h, 8 h and 24 h (n=3 rats per time point), and the plasma concentration of compound 3 and the spleen PGD2 concentration was measured at each time point.
Blood samples were removed and kept cold at approximately 4° C. immediately after collection to minimize degradation and centrifuged as soon as possible at approximately 4000×g for 10 min. The plasma was transferred to a clean, pre-labelled polypropylene tube and frozen. Samples were stored at −20° C. as soon as possible after collection to minimise degradation of the test item.
Plasma concentrations of 3 were determined using a screening LC-ms/ms method developed using the following parameters:
Samples were analysed alongside plasma standards. Concentration data were determined by back calculation from standard curve.

Sequence of H-PGDS (O60760 whole entry): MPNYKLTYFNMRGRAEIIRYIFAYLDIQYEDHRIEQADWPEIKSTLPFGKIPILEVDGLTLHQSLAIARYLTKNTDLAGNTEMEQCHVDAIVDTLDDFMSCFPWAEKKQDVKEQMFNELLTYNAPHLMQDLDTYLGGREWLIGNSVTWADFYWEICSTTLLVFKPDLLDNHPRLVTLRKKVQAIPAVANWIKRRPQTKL

With O=C(c1ccc(-c2cccs2)nc1)N1CCC(N2C(=O)OCc3ccccc32)CC1 [Compound 13, 1-(1-(6-(thiophen-2-yl)nicotinoyl)piperidin-4-yl)-1H-benzo[d][1,3]oxazin-2(4H)-one] the inhibition at 50 µM (H-PGDS) was 87.9 ± 1.1%.

With N#Cc1ccc(-c2ccc(C(=O)N[C@@H](Cc3ccccc3)C(N)=O)cn2)s1 [Compound 20] the inhibition at 50 µM (H-PGDS) was 67.9 ± 1.6%.

With c1ccc(-c2ncc(-c3cc[nH]n3)s2)cc1 [Compound 2] the “effect on BMM cell viability” value (BMM) was “modest but significant effects”, the EC50 ([1]; Mus musculus, Macrophage, 24 h, read-out: EC50 for inhibition of PGD2 production) was ~0.16 µM and the “effect on MEG-01S cell viability” value (MEG-01S cells) was “little effect”.

Work on NC(=O)[C@H](Cc1ccccc1)NC(=O)c1ccc(-c2ccc(C(=O)O)s2)nc1 [Compound 15] yielded an inhibition at 50 µM (H-PGDS) of 19.4 ± 1.4%.

For c1ccc(C(OC2CCN(CCCc3nnn[nH]3)CC2)c2ccccc2)cc1 [Compound 1], the “effect on BMM cell viability” value (BMM) was “modest but significant effects” and the “effect on MEG-01S cell viability” value (MEG-01S cells) was “little effect”.

In the case of Cc1cc(-c2ccc(C(=O)N[C@@H](Cc3ccccc3)C(N)=O)cn2)sc1C#N [Compound 22], the inhibition at 50 µM (H-PGDS) is reported as 34.6 ± 2.1%.

In the case of NC(=O)[C@H](Cc1ccccc1)NC(=O)c1ccc(-c2cccs2)nc1 (stereo in doubt) [Compound 3, N-(1-amino-1-oxo-3-phenylpropan-2-yl)-6-(thiophen-2-yl)-nicotinamide], the “concentration above which 6-keto PGF1α inhibition was observed” value [2] is reported as “above 10 μM”, the “effect on BMM cell viability” value (BMM) is reported as “did not affect BMM viability” and the “concentration above which PGE2 inhibition was observed” value [3] is reported as “above 10 μM”. The “differential effect in inhibition of PGD2 versus PGE2, 6-keto PGF1α or TXB2 (selectivity)” value ([1]; LPS-activated mouse BMM) was “striking selectivity”, the “inhibition of PGD2 production” value ([1]; LPS-activated mouse BMM, 0-100 μM, 24 h) was “inhibited PGD2 production in the sub-micromolar range dose-dependently” and the “inhibition of PGD2 levels at 1 μM” value ([1]; LPS-activated mouse BMM, 1 μM) was “significantly inhibiting”. For the same compound, the “EC50 fold better than that estimated for compound 1” value ([1]; LPS-activated mouse BMM, PGD2 production) was ~30 fold, the “effect on MEG-01S cell viability” value (MEG-01S cells) was “little effect” and the “inhibition of A23187-inducible PGD2 production” value [4] was “dose-dependently”. The “concentration above which TXB2 inhibition was observed” value [5] was “above 10 μM”, the “Concentration (individual rat)” value ([6]; 0.5 h) was 177 ng/mL and the “Concentration (individual rat)” value ([6]; 24 h, BLOQ = below the lower limit of quantitation) was “BLOQ^2”. The “oral bioavailability” value ([6]; rat) was “orally bioavailable”.
